# Measured values as given in patent US10220029B2, “Pharmaceutical composition comprising glutarimide derivatives and use thereof in the treatment of eosinophilic diseases” (OBSCHESTVO S ORGANICHENNOI OTVETSTVENNOSTIYU …, priority 2013, dated 2019).
# Marks after values point to notes of the source that are not given here.
# What was measured:
# Type in all cases: in vivo, guinea pig
# [1] = tested on: model of bronchial asthma in guinea pigs; assay: Content of cell elements in BAL in the model of bronchial asthma in guinea pigs
# Method: (§1) Bronchial asthma in guinea pigs was induced by a standard method [Ricciardolo F L, Nijkamp F, De Rose V, Folkerts G. The guinea pig as an animal model for asthma// Current Drug Targets. 2008 June; 9(6):452-65]. The animals were immunized by one parenteral administration of 0.5 mL of a solution comprising 100 μg/mL ovalbumin (Sigma) and 100 mg/mL aluminium hydroxide. Intact animals received a physiological saline solution in an amount of 0.5 mL.
# (§2) On days 29, 30 and 31, hyperactivity of the respiratory airways was provoked by inhalation administration of ovalbumin in ascending concentrations of 0.1, 0.3, and 0.5 mg/mL on days 1, 2, and 3 of the provocation, respectively. The inhalation lasted 5 minutes or until asphyxia symptoms became apparent (fall to one side). On day 32, the animals received a challenging dose of ovalbumin (1 mg/mL) for 5 minutes, while assessing a bronchospastic reaction.
# (§3) The studied compounds were administered to the animals once daily every day for 6 or 10 days; the administration was terminated two days before the administration of the challenging dose of antigen.
# (§4) The bronchoalveolar lavage (BAL) and cardiac cavity blood were derived from the animals 24 hours after administration of the challenging dose. The BAL was collected under anesthesia by lavaging the lungs with 5 mL of a physiological saline solution heated to 37° C. through the trachea, using a syringe dosing device.
# The absolute number of cell elements in 1 μL of the lavage (cytosis) was counted in the bronchoalveolar lavage, using the Goryaev camera. Then, the BAL was centrifuged at 200 g for 10 minutes. The residue was used to prepare swabs that were fixed in methanol and stained according to Romanovsky-Giemsa to count endopulmonary cytogram.
# (§5) The study comprised 3 experiments, wherein the first one was directed to the evaluation of the effect of claimed compounds 1-6 on the cell composition of the BAL, the second and the third experiments were aimed at evaluating the effect of compounds 1 and 2 on the cell composition of the BAL, the cell composition of the blood, and on the bronchospasm severity.
# [2] = tested on: model of bronchial asthma in guinea pigs; assay: Content of cell elements in the blood in the model of bronchial asthma in guinea pigs; settings: Table 6 Experiment No. 1, 10 times, n = 8
# Method: as §1, §2, §3, §4
# The blood was analyzed with a hemocytometer to determine leykoformula.
# as §5
# [3] = tested on: model of leukotriene-induced eosinophilic lung inflammation in guinea pigs; assay: Content of cell elements in BAL in the model of leukotriene-induced eosinophilic lung inflammation in guinea pigs; settings: four times, BAL 48 hours after LTD4, n = 8
# Excerpt: The model of leukotriene-induced eosinophilic lung inflammation in guinea pigs was realized by a standard method [Underwood DC1, Osborn R R, Newsholme S J, Torphy T J, Hay D W. Persistent airway eosinophilia after leukotriene (LT) D4 administration in the guinea pig: modulation by the LTD4 receptor antagonist, pranlukast, or an interleukin-5 monoclonal antibody// Am J Respir Crit Care Med. 1996 October; 154(4 Pt 1):850-7]. A solution of leukotriene D4 (LTD4, Cayman Chemical, USA) at a concentration of […] (a flow rate of 250 mL/hr) was inhaled to male guinea pigs (250-300 g) under conditions of a double-chamber plethysmograph (Emka Technologies, France) for one minute. The studied compound was administered to the animals by the intragastric route four times: 24 hours and 1 hour before and 24 hours and 45 hours after the inhalation of LTD4. The reference preparation, montelukast (0.8 mg/kg), was administered one time by the intragastric route one hour before the inhalation of LTD4. Bronchoalveolar lavage was taken 48 hours after the inhalation of LTD4, and the total lymphocyte count and leukocyte formula were determined in the lavage. The number of guinea pigs in a group was 8.
# [4] = Table 4, 14 mg/kg, 10 times of administration, n = 9
# [5] = Table 5 Experiment No. 1, 0.045 mg/kg, 10 times, n = 8
# [6] = Table 5 Experiment No. 1, 0.14 mg/kg, 10 times, n = 8
# [7] = Table 5 Experiment No. 1, 14 mg/kg, 10 times, n = 8
structure (smiles),measurement,setting,value
"O=C1CCCC(=O)N1CCc1cnc[nH]1 [Compound 1, 1-(2-(1H-imidazol-4-yl)ethyl)piperidine-2,6-dione]",Eosinophils in BAL,[1]; [4],0.89 ± 0.23*& 10^9/L
same,Lymphocytes in BAL,[1]; [4],0.70 ± 0.13* 10^9/L
same,Monocytes in BAL,[1]; [4],0.35 ± 0.09* 10^9/L
same,Neutrophils in BAL,[1]; [4],0.36 ± 0.09 10^9/L
same,Cytosis in BAL,[1]; [5],12.8 ± 0.2* 10^9/L
same,Eosinophils in BAL,[1]; [5],0.45 ± 0.07*& 10^9/L
same,Lymphocytes in BAL,[1]; [5],0.10 ± 0.04& 10^9/L
same,Monocytes in BAL,[1]; [5],0.52 ± 0.092* 10^9/L
same,Neutrophils in BAL,[1]; [5],0.19 ± 0.08 10^9/L
same,Cytosis in BAL,[1]; [6],10.5 ± 0.2*& 10^9/L
same,Eosinophils in BAL,[1]; [6],0.41 ± 0.10*& 10^9/L
same,Lymphocytes in BAL,[1]; [6],0.13 ± 0.04& 10^9/L
same,Monocytes in BAL,[1]; [6],0.43 ± 0.076* 10^9/L
same,Neutrophils in BAL,[1]; [6],0.07 ± 0.01 10^9/L
same,Cytosis in BAL,[1]; [7],14.6 ± 0.3* 10^9/L
same,Eosinophils in BAL,[1]; [7],0.45 ± 0.12*& 10^9/L
same,Lymphocytes in BAL,[1]; [7],0.15 ± 0.026*& 10^9/L
same,Monocytes in BAL,[1]; [7],0.7 ± 0.16* 10^9/L
same,Neutrophils in BAL,[1]; [7],0.15 ± 0.03* 10^9/L
same,Banded neutrophils in the blood,[2]; 0.045 mg/kg,0.31 ± 0.10 10^9/L
same,Basophils in the blood,[2]; 0.045 mg/kg,0 ± 0 10^9/L
same,Cytosis in the blood,[2]; 0.045 mg/kg,9.03 ± 1.40& 10^9/L
same,Eosinophils in the blood,[2]; 0.045 mg/kg,0.19 ± 0.04& 10^9/L
same,Lymphocytes in the blood,[2]; 0.045 mg/kg,4.80 ± 0.84* 10^9/L
same,Monocytes in the blood,[2]; 0.045 mg/kg,0.29 ± 0.08 10^9/L
same,Segmented neutrophils in the blood,[2]; 0.045 mg/kg,2.92 ± 0.65 10^9/L
same,Banded neutrophils in the blood,[2]; 0.14 mg/kg,0.19 ± 0.05& 10^9/L
same,Basophils in the blood,[2]; 0.14 mg/kg,0 ± 0 10^9/L
same,Cytosis in the blood,[2]; 0.14 mg/kg,9.11 ± 1.07*& 10^9/L
same,Eosinophils in the blood,[2]; 0.14 mg/kg,0.09 ± 0.03& 10^9/L
same,Lymphocytes in the blood,[2]; 0.14 mg/kg,5.25 ± 0.89* 10^9/L
same,Monocytes in the blood,[2]; 0.14 mg/kg,0.33 ± 0.06* 10^9/L
same,Segmented neutrophils in the blood,[2]; 0.14 mg/kg,2.23 ± 0.58& 10^9/L
same,Banded neutrophils in the blood,[2]; 14 mg/kg,0.27 ± 0.06* 10^9/L
same,Basophils in the blood,[2]; 14 mg/kg,0 ± 0 10^9/L
same,Cytosis in the blood,[2]; 14 mg/kg,8.90 ± 0.25*& 10^9/L
same,Eosinophils in the blood,[2]; 14 mg/kg,0.13 ± 0.04& 10^9/L
same,Lymphocytes in the blood,[2]; 14 mg/kg,4.45 ± 0.25* 10^9/L
same,Monocytes in the blood,[2]; 14 mg/kg,0.33 ± 0.06* 10^9/L
same,Segmented neutrophils in the blood,[2]; 14 mg/kg,3.66 ± 0.22* 10^9/L
same,"Eosinophils, content of cell elements in 1 μL of BAL",[3]; 0.14 mg/kg intragastric,916 ± 144*& in 1 μL of BAL
same,"Leukocytes, content of cell elements in 1 μL of BAL",[3]; 0.14 mg/kg intragastric,2638 ± 463*& in 1 μL of BAL
same,"Lymphocytes, content of cell elements in 1 μL of BAL",[3]; 0.14 mg/kg intragastric,112 ± 27 in 1 μL of BAL
same,"Macrophages, content of cell elements in 1 μL of BAL",[3]; 0.14 mg/kg intragastric,1360 ± 323 in 1 μL of BAL
same,"Neutrophils, content of cell elements in 1 μL of BAL",[3]; 0.14 mg/kg intragastric,249 ± 50 in 1 μL of BAL
same,"Eosinophils, content of cell elements in 1 μL of BAL",[3]; 1.4 mg/kg intragastric,856 ± 288*& in 1 μL of BAL
same,"Leukocytes, content of cell elements in 1 μL of BAL",[3]; 1.4 mg/kg intragastric,3413 ± 1022 in 1 μL of BAL
same,"Lymphocytes, content of cell elements in 1 μL of BAL",[3]; 1.4 mg/kg intragastric,144 ± 89 in 1 μL of BAL
same,"Macrophages, content of cell elements in 1 μL of BAL",[3]; 1.4 mg/kg intragastric,2134 ± 705 in 1 μL of BAL
same,"Neutrophils, content of cell elements in 1 μL of BAL",[3]; 1.4 mg/kg intragastric,279 ± 97 in 1 μL of BAL
same,"Eosinophils, content of cell elements in 1 μL of BAL",[3]; 14 mg/kg intragastric,580 ± 124*& in 1 μL of BAL
same,"Leukocytes, content of cell elements in 1 μL of BAL",[3]; 14 mg/kg intragastric,2250 ± 373*& in 1 μL of BAL
same,"Lymphocytes, content of cell elements in 1 μL of BAL",[3]; 14 mg/kg intragastric,71 ± 28 in 1 μL of BAL
same,"Macrophages, content of cell elements in 1 μL of BAL",[3]; 14 mg/kg intragastric,1444 ± 258 in 1 μL of BAL
same,"Neutrophils, content of cell elements in 1 μL of BAL",[3]; 14 mg/kg intragastric,155 ± 36 in 1 μL of BAL
